Laboratory results as given in ChEMBL document CHEMBL2417420, “Autotaxin inhibition: development and application of computational tools to identify site-selective lead compounds” (Bioorg Med Chem, 2013).

target: Autotaxin (Homo sapiens, UniProt Q13822); assay: Inhibition of C-terminal FLAG-tagged human recombinant autotaxin using synthetic substrate FS-3 at 10 uM measured every 2 mins by FRET assay relative to control

Row | inhibition [%] | SMILES
1 | 30 | COc1cccc(C2CC(=O)NC(SCC(=O)Nc3ccccc3C)=C2C#N)c1OC (centres undefined)
2 | 10 | COc1ccc(-c2cc(C(=O)N/N=C/c3cc(OC)c(O)c(OC)c3)[nH]n2)cc1OC
3 | 20 | CC(CC(=O)NCCc1ccncc1)NC(=O)c1cc(-c2ccccc2)nc2ccccc12 (centres undefined)
4 | 0 | CC[C@@H]1CN2CCc3cc(OC)c(OC)cc3[C@@H]2C[C@@H]1C[C@@H]1c2cc(OC)c(OC)cc2CCN1C(=O)COCC(=O)N1CCc2cc(OC)c(OC)cc2[C@@H]1C[C@H]1C[C@H]2c3cc(OC)c(OC)cc3CCN2C[C@@H]1CC
5 | 10 | O=C(COc1cc(Cl)c(Cl)cc1Cl)Nc1ccc(CNC(=O)c2cnc3cc(C(F)(F)F)ccc3c2O)cc1
6 | 10 | Cc1cc(C)cc(CC(=O)N2CCCN(c3ccc(C(=O)NC(C(N)=O)C(C)O)cn3)CC2)c1 (centres undefined)
7 | 30 | COc1cc(OC)cc(-c2nc3cc(C(=O)NCCc4ccccc4)ccc3n2CCc2ccc(OC)c(OC)c2)c1
8 | 10 | COc1ccc(CCn2c(CCc3ccccc3)nc3cc(C(=O)NCCOCCO)ccc32)cc1OC
9 | 0 | Cc1cc(C)cc(CC(=O)N2CCN(c3ncccc3C(=O)NC(C(N)=O)C(C)O)CC2)c1 (centres undefined)
10 | 10 | CCOc1cc(/C=C2/S/C(=N/c3ccccc3)N(c3ccccc3)C2=O)ccc1OCc1ccccc1
11 | 20 | O=C(O)CN1C(=O)/C(=C/c2ccc(-c3ccc(Cl)cc3)o2)S/C1=N\c1ccccc1
12 | 20 | COc1ccc(-c2cc(C(=O)NCCC(=O)NCc3ccccc3OC)c3ccccc3n2)cc1
13 | 20 | CCN(C(=O)c1ccc(/C=C2\S/C(=N\c3ccccc3)N([C@H](C)C(=O)O)C2=O)cc1)c1ccccc1

The next lines start with the molecule.

Row | SMILES | inhibition [%]
14 | CC(C)Cc1ccc(C(C)C(=O)N2CCN(c3ncccc3C(=O)NC(C(N)=O)C(C)O)CC2C)cc1 (centres undefined) | 30
15 | COc1ccc(OC)c(NC(=S)N2CCn3cccc3C2c2ccc(OC)c(OC)c2)c1 (centres undefined) | 30
16 | O=C(O)CN1C(=O)/C(=C/c2cccc(Oc3ccccc3)c2)S/C1=N\c1ccccc1 | 0
17 | Cc1cccc(S(=O)(=O)N2CCn3nc(C4CCC(CNC(=O)CC(C)C)CC4)cc32)c1 (centres undefined) | 20
18 | O=[N+]([O-])c1cc(/C=N/c2ccc3nc(SCc4ccc(Br)cc4)sc3c2)ccc1O | 0
19 | O=C1/C(=C\c2cc(Cc3ccccc3)ccc2O)SC(=S)N1Cc1ccccc1 | 10
20 | CC(CC(=O)N1CCCN(c2ccc(C(=O)NC(C(N)=O)C(C)O)cn2)CC1)c1ccccc1 (centres undefined) | 0
21 | O=C(O)c1cc(-c2ccc(/C=C3/SC(=S)N(CCc4ccccc4)C3=O)o2)ccc1Cl | 20
22 | CCN(C(=O)c1cccc(/C=C2\SC(=S)N([C@H](Cc3ccccc3)C(=O)O)C2=O)c1)c1ccccc1 | 30
23 | COc1cc(/C=C2/SC(=S)N(Cc3ccccc3)C2=O)ccc1OC(=O)c1cccs1 | 0
24 | COc1ccccc1/C=C1\SC(=O)N(CCC(=O)N2c3ccccc3Sc3ccccc32)C1=O | 20
25 | CC(=O)N1CCc2cc(NC(=O)c3ccc4nc(C)c(N(C)C(=O)CCc5ccccc5)n4c3)ccc21 | 20
26 | O=C1c2ccccc2-c2ccc(S(=O)(=O)Nc3ccc(S(=O)(=O)Nc4nccs4)cc3)cc21 | 10
27 | CC(C)Cc1ccc(C(C)C(=O)N2CCN(c3ncccc3C(=O)NC(C(N)=O)C(C)O)CC2)cc1 (centres undefined) | 20
28 | COc1cc(CCNC(=O)c2ccc3c(c2)nc(-c2cccc(C)c2)n3CCc2ccc(OC)c(OC)c2)cc(OC)c1 | 30
29 | CC1CN(c2ccc(C(=O)NC(Cc3ccc(O)cc3)C(N)=O)cn2)CCN1C(=O)C(N)Cc1ccccc1 (centres undefined) | 10
30 | COc1cccc(/C=C2/S/C(=N/c3ccccc3)N(Cc3ccccc3)C2=O)c1O | 0
31 | N#CC1=C(SCC(=O)N(c2ccccc2)c2ccccc2)NC(=O)CC1c1cc(Br)c(O)c(Br)c1 (centres undefined) | 10
32 | O=C(NCC(O)CO)c1ccc2c(c1)nc(CN1CCC(CCO)CC1)n2CCc1ccccc1 (centres undefined) | 10
33 | CC(O)C(NC(=O)c1cccnc1N1CCN(C(=O)Cc2ccc(-c3ccccc3)cc2)CC1)C(N)=O (centres undefined) | 20
34 | COc1ccc(-c2cc(C(=O)NC(C)(C)C(=O)NCCC3CCCN3C)c3ccccc3n2)cc1 (centres undefined) | 10
